Assay results: patent US11820773B2, “Tricyclic compounds” (ALIGOS THERAPEUTICS, INC., priority 2020, dated 2023)

The compounds below were run on HBV (assay: HBV-DNA antiviral assay using HepG2.117 cells (intracellular HBV DNA by qPCR)). Settings: Hepatitis B virus, 72 h, HBV DNA inhibition, 3 days incubation, 2% DMSO.
Assay type: cell-based, genotype D HBV
Procedure, shortened: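 HepG2.117 cells (stable genotype D HBV, Tet-off) seeded without doxycycline, treated next day with 9-point 4-fold dilutions in 2% DMSO for 3 days at 37° C. Intracellular HBV DNA quantified by qPCR against a standard curve; viability by CellTiter-Glo ATP. EC50, EC90, CC50 from variable-slope dose-response fits versus DMSO control.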

Row | SMILES | EC50
1 | C#CCc1cnn2c3c(c(=O)n(-c4ccc(C(=O)NC)cc4)c12)C[C@H](C)N(C(=O)c1ccc(Br)c(C(F)(F)F)c1)C3 (stereo in doubt) [Compound 78b, N-methyl-4-[rac-(11S)-12-[4-bromo-3-(trifluoromethyl)benzoyl]-11-methyl-8-oxo-5-prop-2-ynyl-2,3,7,12-tetrazatricyclo[7.4.0.0^2,6]trideca-1 (9),3,5-trien-7-yl]benzamide] | 50 to 500 nM
2 | Cc1cnn(-c2ccc(-n3c(=O)c4c(n5ncc(Cc6ccccc6)c35)CN(C(=O)c3ccc(Br)c(C(F)(F)F)c3)[C@H](C)C4)cc2)n1 (stereo in doubt) [Compound 79a, rac-(11R)-5-benzyl-12-[4-bromo-3-(trifluoromethyl)benzoyl]-11-methyl-7-[4-(4-methyltriazol-2-yl)phenyl]-2,3,7,12-tetrazatricyclo[7.4.0.0^2,6]trideca-1(9),3,5-trien-8-one] | < 50 nM
3 | Cc1cnn(-c2ccc(-n3c(=O)c4c(n5ncc(Cc6ccccc6)c35)CN(C(=O)c3ccc(Br)c(C(F)(F)F)c3)[C@@H](C)C4)cc2)n1 (stereo in doubt) [Compound 79b, rac-(11S)-5-benzyl-12-[4-bromo-3-(trifluoromethyl)benzoyl]-11-methyl-7-[4-(4-methyltriazol-2-yl)phenyl]-2,3,7,12-tetrazatricyclo[7.4.0.0^2,6]trideca-1(9),3,5-trien-8-one] | 50 to 500 nM
4 | Cc1nn[nH]c1-c1ccc(-n2c(=O)c3c(n4ncc(Cc5ccccc5)c24)CN(C(=O)c2ccc(Br)c(C(F)(F)F)c2)[C@H](C)C3)cc1 (stereo in doubt) [Compound 80a, rac-(11R)-5-benzyl-12-[4-bromo-3-(trifluoromethyl)benzoyl]-11-methyl-7-[4-(4-methyl-1H-triazol-5-yl)phenyl]-2,3,7,12-tetrazatricyclo[7.4.0.0^2,6]trideca-1(9),3,5-trien-8-one] | < 50 nM
5 | Cc1nn[nH]c1-c1ccc(-n2c(=O)c3c(n4ncc(Cc5ccccc5)c24)CN(C(=O)c2ccc(Br)c(C(F)(F)F)c2)[C@@H](C)C3)cc1 (stereo in doubt) [Compound 80b, rac-(11S)-5-benzyl-12-[4-bromo-3-(trifluoromethyl)benzoyl]-11-methyl-7-[4-(4-methyl-1H-triazol-5-yl)phenyl]-2,3,7,12 tetrazatricyclo[7.4.0.0^2,6]trideca-1(9),3,5-trien-8-one] | 50 to 500 nM
6 | CC(C)Cc1cnn2c3c(c(=O)n(-c4ccc(-c5n[nH]c(=O)n5C)cc4)c12)C[C@@H](C)N(C(=O)c1ccc(Br)c(C(F)(F)F)c1)C3 (stereo in doubt) [Compound 81a, rac-(11R)-12-[4-bromo-3-(trifluoromethyl)benzoyl]-5-isobutyl-11-methyl-7-[4-(4-methyl-5-oxo-1H-1,2,4-triazol-3-yl)phenyl]-2,3,7,12-tetrazatricyclo[7.4.0.0^2,6]trideca-1(9),3,5-trien-8-one] | < 50 nM
7 | CC(C)Cc1cnn2c3c(c(=O)n(-c4ccc(-c5n[nH]c(=O)n5C)cc4)c12)C[C@H](C)N(C(=O)c1ccc(Br)c(C(F)(F)F)c1)C3 (stereo in doubt) [Compound 81b, rac-(11S)-12-[4-bromo-3-(trifluoromethyl)benzoyl]-5-isobutyl-11-methyl-7-[4-(4-methyl-5-oxo-1H-1,2,4-triazol-3-yl)phenyl]-2,3,7,12-tetrazatricyclo[7.4.0.0^2,6]trideca-1(9),3,5-trien-8-one] | 50 to 500 nM
8 | C[C@@H]1Cc2c(n3ncc(Cc4ccccc4)c3n(-c3ccc(-c4nn(C)c(=O)[nH]4)cc3)c2=O)CN1C(=O)c1ccc(Br)c(C(F)(F)F)c1 (stereo in doubt) [Compound 82a, rac-(11R)-5-benzyl-12-[4-bromo-3-(trifluoromethyl)benzoyl]-11-methyl-7-[4-(1-methyl-5-oxo-4H-1,2,4-triazol-3-yl)phenyl]-2,3,7,12-tetrazatricyclo[7.4.0.0^2,6]trideca-1(9),3,5-trien-8-one] | < 50 nM
9 | C[C@H]1Cc2c(n3ncc(Cc4ccccc4)c3n(-c3ccc(-c4nn(C)c(=O)[nH]4)cc3)c2=O)CN1C(=O)c1ccc(Br)c(C(F)(F)F)c1 (stereo in doubt) [Compound 82b, rac-(11S)-5-benzyl-12-[4-bromo-3-(trifluoromethyl)benzoyl]-11-methyl-7-[4-(1-methyl-5-oxo-4H-1,2,4-triazol-3-yl)phenyl]-2,3,7,12-tetrazatricyclo[7.4.0.0^2,6]trideca-1(9),3,5-trien-8-one] | 50 to 500 nM
10 | Cc1nn[nH]c1-c1cc(-n2c(=O)c3c(n4ncc(Cc5ccccc5)c24)CN(C(=O)c2ccc(Br)c(C(F)(F)F)c2)[C@H](C)C3)nn1C (stereo in doubt) [Compound 83a, rac-(11R)-5-benzyl-12-[4-bromo-3-(trifluoromethyl)benzoyl]-11-methyl-7-[1-methyl-5-(4-methyl-1H-triazol-5-yl)pyrazol-3-yl]-2,3,7,12-tetrazatricyclo[7.4.0.0^2,6]trideca-1(9),3,5-trien-8-one] | < 50 nM
11 | Cc1nn[nH]c1-c1cc(-n2c(=O)c3c(n4ncc(Cc5ccccc5)c24)CN(C(=O)c2ccc(Br)c(C(F)(F)F)c2)[C@@H](C)C3)nn1C (stereo in doubt) [Compound 83b, rac-(11S)-5-benzyl-12-[4-bromo-3-(trifluoromethyl)benzoyl]-11-methyl-7-[1-methyl-5-(4-methyl-1H-triazol-5-yl)pyrazol-3-yl]-2,3,7,12-tetrazatricyclo[7.4.0.0^2,6]trideca-1(9),3,5-trien-8-one] | 50 to 500 nM
12 | CC[C@@H]1Cc2c(n3ncc(Cc4ccccc4)c3n(-c3ccc4c(NC)n[nH]c4c3)c2=O)CN1C(=O)c1ccc(Br)c(C(F)(F)F)c1 (stereo in doubt) [Compound 84a, rac-(11R)-5-benzyl-12-[4-bromo-3-(trifluoromethyl)benzoyl]-11-ethyl-7-[3-(methylamino)-1H-indazol-6-yl]-2,3,7,12-tetrazatricyclo[7.4.0.0^2,6]trideca-1(9),3,5-trien-8-one] | < 50 nM
13 | CC[C@H]1Cc2c(n3ncc(Cc4ccccc4)c3n(-c3ccc4c(NC)n[nH]c4c3)c2=O)CN1C(=O)c1ccc(Br)c(C(F)(F)F)c1 (stereo in doubt) [Compound 84b, rac-(11S)-5-benzyl-12-[4-bromo-3-(trifluoromethyl)benzoyl]-11-ethyl-7-[3-(methylamino)-1H-indazol-6-yl]-2,3,7,12-tetrazatricyclo[7.4.0.0^2,6]trideca-1(9),3,5-trien-8-one] | < 50 nM
14 | CNC(=O)c1cnc(-n2c(=O)c3c(n4ncc(CC(C)C)c24)CN(C(=O)c2ccc(Br)c(C(F)(F)F)c2)[C@H](C)C3)nc1 (stereo in doubt) [Compound 85a, N-methyl-2-[rac-(11R)-12-[4-bromo-3-(trifluoromethyl)benzoyl]-5-isobutyl-11-methyl-8-oxo-2,3,7,12-tetrazatricyclo[7.4.0.0^2,6]trideca-1(9),3,5-trien-7-yl]pyrimidine-5-carboxamide] | < 50 nM
15 | CNC(=O)c1cnc(-n2c(=O)c3c(n4ncc(CC(C)C)c24)CN(C(=O)c2ccc(Br)c(C(F)(F)F)c2)[C@@H](C)C3)nc1 (stereo in doubt) [Compound 85b, N-methyl-2-[rac-(11S)-12-[4-bromo-3-(trifluoromethyl)benzoyl]-5-isobutyl-11-methyl-8-oxo-2,3,7,12-tetrazatricyclo[7.4.0.0^2,6]trideca-1(9),3,5-trien-7-yl]pyrimidine-5-carboxamide] | < 50 nM
16 | CC(C)Cc1cnn2c3c(c(=O)n(-c4ccc5c(c4)ncn5C)c12)C[C@@H](C)N(C(=O)c1ccc(Br)c(C(F)(F)F)c1)C3 (stereo in doubt) [Compound 86a, rac-(11R)-12-[4-bromo-3-(trifluoromethyl)benzoyl]-5-isobutyl-11-methyl-7-(1-methylbenzimidazol-5-yl)-2,3,7,12-tetrazatricyclo[7.4.0.0^2,6]trideca-1(9),3,5-trien-8-one] | < 50 nM
17 | CC(C)Cc1cnn2c3c(c(=O)n(-c4ccc5c(c4)ncn5C)c12)C[C@H](C)N(C(=O)c1ccc(Br)c(C(F)(F)F)c1)C3 (stereo in doubt) [Compound 86b, rac-(11S)-12-[4-bromo-3-(trifluoromethyl)benzoyl]-5-isobutyl-11-methyl-7-(1-methylbenzimidazol-5-yl)-2,3,7,12-tetrazatricyclo[7.4.0.0^2,6]trideca-1(9),3,5-trien-8-one] | 50 to 500 nM
18 | CCC[C@@H]1Cc2c(n3ncc(Cc4ccccc4)c3n(-c3ccc4c(NC)n[nH]c4c3)c2=O)CN1C(=O)c1ccc(Br)c(C(F)(F)F)c1 (stereo in doubt) [Compound 88a, rac-(11R)-5-benzyl-12-[4-bromo-3-(trifluoromethyl)benzoyl]-7-[3-(methylamino)-1H-indazol-6-yl]-11-propyl-2,3,7,12-tetrazatricyclo[7.4.0.0^2,6]trideca-1(9),3,5-trien-8-one] | < 50 nM
19 | CCC[C@H]1Cc2c(n3ncc(Cc4ccccc4)c3n(-c3ccc4c(NC)n[nH]c4c3)c2=O)CN1C(=O)c1ccc(Br)c(C(F)(F)F)c1 (stereo in doubt) [Compound 88b, rac-(11S)-5-benzyl-12-[4-bromo-3-(trifluoromethyl)benzoyl]-7-[3-(methylamino)-1H-indazol-6-yl]-11-propyl-2,3,7,12-tetrazatricyclo[7.4.0.0^2,6]trideca-1(9),3,5-trien-8-one] | < 50 nM
20 | CNC(=O)c1cnc(-n2c(=O)c3c(n4ncc(CC(C)C)c24)CN(C(=O)c2ccc(Br)c(C(F)(F)F)c2)[C@H](C)C3)cn1 (stereo in doubt) [Compound 89a, N-methyl-5-[rac-(11R)-12-[4-bromo-3-(trifluoromethyl)benzoyl]-5-isobutyl-11-methyl-8-oxo-2,3,7,12-tetrazatricyclo[7.4.0.0^2,6]trideca-1(9),3,5-trien-7-yl]pyrazine-2-carboxamide] | < 50 nM
